# What was measured:
# Type in all cases: biochemical
# Human plasma kallikrein = Human plasma kallikrein (Homo sapiens (Human), UniProt P03952); assay: Determination of the IC50 for plasma kallikrein; settings: 25° C., substrate H-DPro-Phe-Arg-AFC; read-out: IC50 (human PKal)
# Method: (§1) Human plasma kallikrein (Protogen) was incubated at 25° C. with the fluorogenic substrate H-DPro-Phe-Arg-AFC and various concentrations of the test compound. Residual enzyme activity (initial rate of reaction) was determined by measuring the change in […] at 410 nm and the IC50 value for the test compound was determined.
# Human KLK1 = Human KLK1 (Homo sapiens (Human), UniProt P06870); assay: Determination of the IC50 for KLK1; settings: 25° C., substrate H-DVal-Leu-Arg-AFC
# Method: as §1, with “KLK1 (Callbiochem)” for “plasma kallikrein (Protogen)”, “H-DVal-Leu-Arg-AFC” for “H-DPro-Phe-Arg-AFC”
# Human FXIa = Human FXIa (Homo sapiens (Human), UniProt P03951); assay: Determination of the % inhibition / IC50 for FXIa; settings: for IC50: 25° C., substrate Z-Gly-Pro-Arg-AFC
# Method: FXIa inhibitory activity in vitro was determined using standard published methods (see e.g. Johansen et al., Int. J. Tiss. Reac. 1986, 8, 185; Shori et al., Biochem. Pharmacol., 1992, 43, 1209; Sturzebecher et al., Biol. Chem. Hoppe-Seyler, 1992, 373, 1025). […]
# Human Factor XIIa = Human Factor XIIa (Homo sapiens (Human), UniProt P00748); assay: Factor XIIa inhibitory activity in vitro; settings: 25° C., substrate H-DPro-Phe-Arg-AFC; read-out: IC50 (human FXIIa)
# Method: as §1, with “Factor XIIa (Enzyme Research Laboratories)” for “plasma kallikrein (Protogen)”
# Human plasma kallikrein, sequence (P03952 391-638): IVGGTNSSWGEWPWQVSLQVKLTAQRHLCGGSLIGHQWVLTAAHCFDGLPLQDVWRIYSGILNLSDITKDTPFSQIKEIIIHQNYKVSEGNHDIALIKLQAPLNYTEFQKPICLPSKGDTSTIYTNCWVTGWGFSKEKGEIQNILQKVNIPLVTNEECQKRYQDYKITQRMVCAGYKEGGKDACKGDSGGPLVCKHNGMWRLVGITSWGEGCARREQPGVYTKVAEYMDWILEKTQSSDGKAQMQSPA
# Human plasma kallikrein, sequence (P03952 20-390): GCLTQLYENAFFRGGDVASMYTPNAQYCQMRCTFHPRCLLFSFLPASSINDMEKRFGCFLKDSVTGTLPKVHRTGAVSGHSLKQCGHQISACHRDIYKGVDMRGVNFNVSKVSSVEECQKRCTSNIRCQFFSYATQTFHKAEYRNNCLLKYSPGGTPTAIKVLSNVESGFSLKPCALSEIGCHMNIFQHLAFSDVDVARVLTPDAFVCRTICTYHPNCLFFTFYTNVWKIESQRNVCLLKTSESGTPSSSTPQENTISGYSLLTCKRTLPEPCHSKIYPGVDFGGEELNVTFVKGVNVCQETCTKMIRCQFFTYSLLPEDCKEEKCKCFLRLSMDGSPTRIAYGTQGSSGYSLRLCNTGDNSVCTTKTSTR
# Human KLK1, sequence (P06870 25-262): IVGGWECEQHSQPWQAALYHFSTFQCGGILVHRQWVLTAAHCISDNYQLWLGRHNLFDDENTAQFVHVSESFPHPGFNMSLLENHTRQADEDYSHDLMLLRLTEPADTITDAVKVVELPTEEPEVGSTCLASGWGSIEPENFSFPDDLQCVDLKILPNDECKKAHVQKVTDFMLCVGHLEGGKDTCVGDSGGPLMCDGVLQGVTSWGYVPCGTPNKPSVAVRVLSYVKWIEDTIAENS
# Human Factor XIIa, sequence (P00748 373-615): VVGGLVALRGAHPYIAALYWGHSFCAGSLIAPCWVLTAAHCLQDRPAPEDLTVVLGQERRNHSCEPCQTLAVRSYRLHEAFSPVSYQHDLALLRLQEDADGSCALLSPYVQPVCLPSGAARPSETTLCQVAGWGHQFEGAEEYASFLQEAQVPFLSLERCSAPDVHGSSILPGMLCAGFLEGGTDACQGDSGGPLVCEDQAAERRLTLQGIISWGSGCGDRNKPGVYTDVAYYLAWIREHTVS
# Human FXIa, sequence (P03951 388-625): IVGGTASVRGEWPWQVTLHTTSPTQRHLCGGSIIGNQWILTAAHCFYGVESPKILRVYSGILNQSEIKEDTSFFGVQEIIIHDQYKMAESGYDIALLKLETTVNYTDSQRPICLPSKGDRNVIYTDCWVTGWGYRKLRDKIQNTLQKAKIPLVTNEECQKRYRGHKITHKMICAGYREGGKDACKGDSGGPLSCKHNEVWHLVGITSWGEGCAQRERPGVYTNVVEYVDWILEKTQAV
# Human FXIa, sequence (P03951 19-387): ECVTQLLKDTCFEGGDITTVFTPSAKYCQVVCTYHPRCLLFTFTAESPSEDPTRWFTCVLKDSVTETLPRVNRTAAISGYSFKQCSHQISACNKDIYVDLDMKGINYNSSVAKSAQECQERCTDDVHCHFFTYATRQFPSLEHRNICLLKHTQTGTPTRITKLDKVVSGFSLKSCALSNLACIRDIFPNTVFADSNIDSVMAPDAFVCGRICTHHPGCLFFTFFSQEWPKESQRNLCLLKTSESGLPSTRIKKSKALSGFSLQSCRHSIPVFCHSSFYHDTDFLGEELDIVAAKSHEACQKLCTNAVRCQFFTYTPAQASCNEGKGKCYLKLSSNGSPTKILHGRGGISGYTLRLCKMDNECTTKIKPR
SMILES,IC50 (Human plasma kallikrein),IC50 (Human KLK1),IC50 (Human FXIa),IC50 (Human Factor XIIa),"inhibition at 40 µM (Human FXIa; 40 μM test compound, read-out: % Inhibition @ 40 μM (human FXIa))"
"COCc1nn(Cc2ccc(Cn3ccccc3=O)cc2)cc1C(=O)NCc1cc(OC)ncn1 [Example 4, 3-(methoxymethyl)-N-[(6-methoxypyrimidin-4-yl)methyl]-1-({4-[(2-oxopyridin-1-yl)methyl]phenyl}methyl)pyrazole-4-carboxamide]",2.3 µM,> 4 µM,> 40 µM,> 4 µM,–
"COCc1nn(Cc2ccc(Cn3ccccc3=O)cc2)cc1C(=O)NCc1cc(OC)ncc1C#N [Example 8, N-[(5-cyano-2-methoxypyridin-4-yl)methyl]-3-(methoxymethyl)-1-({4-[(2-oxopyridin-1-yl)methyl]phenyl}methyl)pyrazole-4-carboxamide]",0.162 µM,> 4 µM,> 40 µM,> 4 µM,–
"COCc1nn(Cc2ccc(Cn3ccccc3=O)cc2)cc1C(=O)NCc1nccc(OC)n1 [Example 10, 3-(methoxymethyl)-N-[(4-methoxypyrimidin-2-yl)methyl]-1-({4-[(2-oxopyridin-1-yl)methyl]phenyl}methyl)pyrazole-4-carboxamide]",2.45 µM,> 40 µM,> 40 µM,> 40 µM,–
"COCc1nn(Cc2ccc(Cn3ccccc3=O)cc2)cc1C(=O)NCc1ncc(C)c(OC)c1C [Example 11, N-[(4-methoxy-3,5-dimethylpyridin-2-yl)methyl]-3-(methoxymethyl)-1-({4-[(2-oxopyridin-1-yl)methyl]phenyl}methyl)pyrazole-4-carboxamide]",0.035 µM,> 40 µM,> 40 µM,> 40 µM,–
"COCc1nn(Cc2ccc(Cn3ccccc3=O)cc2)cc1C(=O)NCc1ncccc1C#N [Example 13, N-[(3-cyanopyridin-2-yl)methyl]-3-(methoxymethyl)-1-({4-[(2-oxopyridin-1-yl)methyl]phenyl}methyl)pyrazole-4-carboxamide]",2.95 µM,> 4 µM,> 40 µM,> 4 µM,–
"COCc1nn(Cc2ccc(Cn3ccccc3=O)cc2)cc1C(=O)NCc1ncc(Cl)cc1C#N [Example 16, N-[(5-chloro-3-cyanopyridin-2-yl)methyl]-3-(methoxymethyl)-1-({4-[(2-oxopyridin-1-yl)methyl]phenyl}methyl)pyrazole-4-carboxamide]",0.187 µM,> 40 µM,> 40 µM,> 40 µM,–
"COCc1nn(Cc2ccc(Cn3ccccc3=O)cc2)cc1C(=O)NCc1ncc(Cl)cc1F [Example 17, N-[(5-chloro-3-fluoropyridin-2-yl)methyl]-3-(methoxymethyl)-1-({4-[(2-oxopyridin-1-yl)methyl]phenyl}methyl)pyrazole-4-carboxamide]",0.143 µM,> 40 µM,> 40 µM,> 40 µM,–
"COCc1nn(Cc2ccc(Cn3ccccc3=O)cc2)cc1C(=O)NCc1cc(OC)c(C)cn1 [Example 20, N-[(4-methoxy-5-methylpyridin-2-yl)methyl]-3-(methoxymethyl)-1-({4-[(2-oxopyridin-1-yl)methyl]phenyl}methyl)pyrazole-4-carboxamide]",3.22 µM,> 40 µM,> 40 µM,> 40 µM,0%
"COCc1nn(Cc2ccc(Cn3ccccc3=O)cc2)cc1C(=O)NCc1ncc(F)cc1F [Example 26, N-[(3,5-difluoropyridin-2-yl)methyl]-3-(methoxymethyl)-1-({4-[(2-oxopyridin-1-yl)methyl]phenyl}methyl)pyrazole-4-carboxamide]",1.76 µM,> 40 µM,> 40 µM,> 40 µM,–
"COCc1nn(Cc2ccc(Cn3ccccc3=O)cc2)cc1C(=O)NCc1nc(C)ccc1F [Example 27, N-[(3-fluoro-6-methylpyridin-2-yl)methyl]-3-(methoxymethyl)-1-({4-[(2-oxopyridin-1-yl)methyl]phenyl}methyl)pyrazole-4-carboxamide]",0.775 µM,> 40 µM,> 40 µM,> 40 µM,–
"COCc1nn(Cc2ccc(Cn3ccccc3=O)cc2)cc1C(=O)NCc1nccc(C)c1F [Example 28, N-[(3-fluoro-4-methylpyridin-2-yl)methyl]-3-(methoxymethyl)-1-({4-[(2-oxopyridin-1-yl)methyl]phenyl}methyl)pyrazole-4-carboxamide]",0.163 µM,> 40 µM,> 40 µM,> 40 µM,–
"COCc1nn(Cc2ccc(Cn3ccccc3=O)cc2)cc1C(=O)NCc1nccc(C)c1Cl [Example 29, N-[(3-chloro-4-methylpyridin-2-yl)methyl]-3-(methoxymethyl)-1-({4-[(2-oxopyridin-1-yl)methyl]phenyl}methyl)pyrazole-4-carboxamide]",0.217 µM,> 40 µM,> 40 µM,> 40 µM,–
"COCc1nn(Cc2ccc(Cn3ccccc3=O)cc2)cc1C(=O)NCc1cc(OC)n(C)n1 [Example 31, N-[(5-methoxy-1-methylpyrazol-3-yl)methyl]-3-(methoxymethyl)-1-({4-[(2-oxopyridin-1-yl)methyl]phenyl}methyl)pyrazole-4-carboxamide]",0.462 µM,> 40 µM,> 40 µM,> 40 µM,–
"COCc1nn(Cc2ccc(Cn3ccccc3=O)cc2)cc1C(=O)NCc1nn(C)cc1Cl [Example 34, N-[(4-chloro-1-methylpyrazol-3-yl)methyl]-3-(methoxymethyl)-1-({4-[(2-oxopyridin-1-yl)methyl]phenyl}methyl)pyrazole-4-carboxamide]",0.709 µM,> 40 µM,> 40 µM,–,–
"COCc1nn(Cc2ccc(Cn3ccccc3=O)cc2)cc1C(=O)NCc1cccc(OC)c1C#N [Example 38, N-[(2-cyano-3-methoxyphenyl)methyl]-3-(methoxymethyl)-1-({4-[(2-oxopyridin-1-yl)methyl]phenyl}methyl)pyrazole-4-carboxamide]",0.301 µM,> 4 µM,> 40 µM,> 4 µM,–
"COCc1nn(Cc2ccc(Cn3ccccc3=O)cc2)cc1C(=O)NCc1cc(OC)ccc1C [Example 41, N-[(5-methoxy-2-methylphenyl)methyl]-3-(methoxymethyl)-1-({4-[(2-oxopyridin-1-yl)methyl]phenyl}methyl)pyrazole-4-carboxamide]",0.149 µM,> 4 µM,> 40 µM,> 4 µM,–
"COCc1nn(Cc2ccc(Cn3ccccc3=O)cc2)cc1C(=O)NCc1cc(OC)cc(OC)c1 [Reference Example A, N-(3,5-Dimethoxybenzyl)-3-(methoxymethyl)-1-(4-((2-oxopyridin-1(2H)-yl)methyl)benzyl)-1H-pyrazole-4-carboxamide, reference compound]",–,> 10 µM,> 40 µM,–,–
"COCc1nn(Cc2cnc3cc(Cl)ccc3c2)cc1C(=O)NCc1cccc(OC)c1F [Reference Example C, 1-(7-Chloro-quinolin-3-ylmethyl)-3-methoxymethyl-1H-pyrazole-4-carboxylic acid 2-fluoro-3-methoxy-benzylamide, reference compound]",–,> 10 µM,> 40 µM,–,–
"COCc1nn(Cc2ccc(Cn3ccccc3=O)cc2)cc1C(=O)NCc1nccc(OC)c1F [Reference Example D, 3-Methoxymethyl-1-[4-(2-oxo-2H-pyridin-1-ylmethyl)-benzyl]-1H-pyrazole-4-carboxylic acid (3-fluoro-4-methoxy-pyridin-2-ylmethyl)-amide, reference compound]",–,> 40 µM,> 40 µM,> 40 µM,–
"COCc1nn(Cc2ccc(Cn3ccccc3=O)cc2)cc1C(=O)NCc1c(C#N)ccc(OC)c1F [Reference Example E, 3-Methoxymethyl-1-[4-(2-oxo-2H-pyridin-1-ylmethyl)-benzyl]-1H-pyrazole-4-carboxylic acid 6-cyano-2-fluoro-3-methoxy-benzylamide, reference compound]",–,–,> 40 µM,> 40 µM,–
"COCc1nn(Cc2ccc(Cn3ccccc3=O)cc2)cc1C(=O)NCc1c(F)ccc(OC)c1C(F)F [Reference Example F, 3-Methoxymethyl-1-[4-(2-oxo-2H-pyridin-1-ylmethyl)-benzyl]-1H-pyrazole-4-carboxylic acid 2-difluoromethyl-6-fluoro-3-methoxy-benzylamide, reference compound]",–,–,> 40 µM,–,–
"COc1cccc(CNC(=O)c2cn(Cc3ccc(N4CCCC4)nc3)nc2C(F)(F)F)c1F [Reference Example G, 1-(6-Pyrrolidin-1-yl-pyridin-3-ylmethyl)-3-trifluoromethyl-1H-pyrazole-4-carboxylic acid 2-fluoro-3-methoxy-benzylamide, reference compound]",–,> 10 µM,> 40 µM,–,–

# Reference: patent US11180484B2, “Pyrazole derivatives as plasma kallikrein inhibitors” (KALVISTA PHARMACEUTICALS LIMITED, priority 2016, dated 2021)
